According to patent US20240390383A1, “DIOXAZINES AND THEIR USE IN TREATMENT OF GBA-RELATED DISEASES” (ZEVRA DENMARK A/S, priority 2021, published 2024):

Target: T1, GCase (GBA) in human fibroblast cell line GM10915 harboring the L444P GBA mutation (Homo sapiens, UniProt P04062, L483P)
T1 construct: Human fibroblast cell line GM10915 harboring the L444P GBA mutation; host or cells: GM10915 human fibroblasts
T1 sequence (P04062 40-536 L483P): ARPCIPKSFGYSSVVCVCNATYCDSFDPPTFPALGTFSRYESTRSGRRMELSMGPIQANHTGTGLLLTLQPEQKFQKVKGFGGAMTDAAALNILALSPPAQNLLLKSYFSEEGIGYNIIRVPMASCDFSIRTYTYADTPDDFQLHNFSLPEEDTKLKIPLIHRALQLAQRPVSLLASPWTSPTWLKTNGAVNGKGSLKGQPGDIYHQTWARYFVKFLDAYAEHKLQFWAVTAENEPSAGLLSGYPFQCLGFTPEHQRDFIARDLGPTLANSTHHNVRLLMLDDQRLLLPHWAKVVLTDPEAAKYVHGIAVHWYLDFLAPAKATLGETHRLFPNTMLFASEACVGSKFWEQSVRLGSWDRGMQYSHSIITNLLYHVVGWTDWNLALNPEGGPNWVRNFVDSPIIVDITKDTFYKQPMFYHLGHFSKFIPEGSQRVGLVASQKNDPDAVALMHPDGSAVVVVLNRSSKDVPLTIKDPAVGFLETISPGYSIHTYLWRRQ
Assay: GCase activity assay (4-MUG substrate, normalised to crystal violet staining) in L444P GBA fibroblasts
Format: cell-based
Conditions: 5 days exposure; for GBA EC1.5: concentration giving 150% GCase activity (1.5-fold induction), 8-point dose range; for Emax: maximum percent GCase activity relative to untreated cells in the dose range tested
Description: Human fibroblast cell line GM10915 harboring the L444P GBA mutation was obtained from Coriell Biorepositories.
All chemicals (Glacial acetic acid, Glycine, 4-Methylumbelliferyl b-D-glucopyranoside (4-MUG), Sodium acetate trihydrate, Sodium hydroxide, Crystal violet, SDS, Ammonium hydroxide) were obtained from Sigma-Aldrich (Denmark) Compounds tested for GCase activity were dissolved in H2O or DMSO.
The GM10915 cell line was cultured under standard cell culture conditions (37° C. and 5% CO2) in complete DMEM medium supplemented with nonessential amino acids (NEAA), 1% Pen-Strep and 12% FCS. Cells were seeded at a density of 10^4 cells/well in 100 μL complete medium in one black 96-well plate for glucosylceramidase (GCase) activity measurement and in one clear 96-well plate for crystal violet staining to correct for cell density. Crystal violet staining is performed to obtain quantitative information about the relative density of cells adhering to multi-wells plates.
The assay was adapted from Sawkar et al (2002) and briefly described in the following. The day after seeding of cells, the medium was replaced with fresh medium containing the compounds to be tested. Compounds were tested in duplicate and in an 8-point diluted dose range to obtain a dose response. Cells were exposed with compounds for five days. Fresh compound was added every 2-3 days. PBS was included to define the basal level of GCase activity.
Cells were washed three times with 200 μL PBS per well and 50 μL of 2.5 mM 4-MUG buffer (4-MUG dissolved in 0.2 M acetate buffer pH 4.0) was added and the cells were incubated at 37° C., 5% CO2 for 23 hours. The reaction was stopped by adding 150 μL 0.2 M glycine buffer (pH 10.8). Fluorescence was measured with a Varioskan® Flash reader (Thermo Scientific) at an excitation/emission setting of 365/445 nm.
Cells were treated with compounds in a parallel setup identical to the setup to test for GCase activity. At the end of compound treatment, cells were washed once with 200 μL PBS per well and 50 μL 0.1% w/v crystal violet (in H2O) was added. Following 10 min. of incubation, the crystal violet solution was removed, and the cells were washed three times with 200 μL PBS and 100 μL 1% SDS was added to solubilize the stain. The plate was agitated on an orbital shaker for 10-30 min. Absorbance (A) is measured at […] using a Varioskan® Flash reader (Thermo Scientific).
The fluorescence signal (F) derived from the GCase measurement is normalized to the absorbance signal (A) derived from the crystal violet staining. The percent GCase activity resulting from compound treatment is calculated relative to the basal activity obtained from untreated cells.
Maximal effect of compounds (Emax) is determined from the dose response effects as the maximum “Percent GCase activity” achieved in the dose range tested.

SMILES	GBA EC1.5 [µM]	Emax [%]
CC1(C2=NOCC(CN3CCCCC3)O2)CCNCC1 (single isomer, unassigned) [compound 567]	7	296
c1cnc(N2CCC(C3=NOCC(CN4CCCCC4)O3)C2)nc1 (stereo not shown) [compound 693]	50	112
FC(F)(F)CN1CCCC(C2=NOCC(CN3CCCCC3)O2)C1 (stereo not shown) [compound 570]	50	107
Cc1ncccc1CC1(C2=NOCC(CN3CCCCC3)O2)CCNCC1 (racemic) [compound 561, rac-3-(4-((2-methylpyridin-3-yl)methyl)piperidin-4-yl)-5-(piperidin-1-ylmethyl)-5,6-dihydro-1,4,2-dioxazine]	5	184
CC(C)(C1=NOCC(CN2CCCCC2)O1)C1CCNCC1 (racemic) [compound 477, rac-5-(piperidin-1-ylmethyl)-3-(2-(piperidin-4-yl)propan-2-yl)-5,6-dihydro-1,4,2-dioxazine di-2,2,2-trifluoroacetate]	15	181
C1CCN(CC2CON=C(C34CCCNCC3C4)O2)CC1 (racemic) [compound 519, rac-3-(3-azabicyclo[5.1.0]octan-7-yl)-5-(piperidin-1-ylmethyl)-5,6-dihydro-1,4,2-dioxazine]	40	159
c1ccc(N2CCC(C3=NOCC(CN4CCCCC4)O3)C2)nc1 (stereo not shown) [compound 672]	50	127
c1cncc(CNCCC2=NOCC(CN3CCCCC3)O2)c1 (racemic) [compound 797, rac-2-(5-(piperidin-1-ylmethyl)-5,6-dihydro-1,4,2-dioxazin-3-yl)-N-(pyridin-3-ylmethyl)ethan-1-amine]	46	149
CC1ON=C(C2CCN(C(C)C)C2)OC1CN1CCCCC1 (racemic) [compound 621, rac-3-(1-isopropylpyrrolidin-3-yl)-6-methyl-5-(piperidin-1-ylmethyl)-5,6-dihydro-1,4,2-dioxazine]	10	276
CN(C)C(=O)N1CCC(C2=NOCC(CN3CCCCC3)O2)C1 (stereo not shown) [compound 675]	50	102
FC1(F)CNCCC1C1=NOCC(CN2CCCCC2)O1 (stereo not shown) [compound 636]	50	126
C1CCN(CC2CON=C(C3(C4CCNCC4)CC3)O2)CC1 (racemic) [compound 521, rac-5-(piperidin-1-ylmethyl)-3-(1-(piperidin-4-yl)cyclopropyl)-5,6-dihydro-1,4,2-dioxazine]	19	336
C1CCN(CCC2=NOC[C@H](CN3CCCCC3)O2)CC1 [compound 891]	15	209
O=C1CC(C2=NOCC(CN3CCCCC3)O2)CCN1 (stereo not shown) [compound 649]	50	103
NC(=O)CN1CCCC(C2=NOCC(CN3CCCCC3)O2)C1 (racemic) [compound 711, rac-2-(3-(5-(piperidin-1-ylmethyl)-5,6-dihydro-1,4,2-dioxazin-3-yl)piperidin-1-yl)acetamide]	38	198
CC1(C2=NOCC(CN3CCCCC3)O2)CCNCC1 (racemic) [compound 568, rac-3-(4-methylpiperidin-4-yl)-5-(piperidin-1-ylmethyl)-5,6-dihydro-1,4,2-dioxazine]	6	281
CN(C)C12CCC(C3=NOCC(CN4CCCCC4)O3)(CC1)CC2 (racemic) [compound 640, rac-N,N-dimethyl-4-(5-(piperidin-1-ylmethyl)-5,6-dihydro-1,4,2-dioxazin-3-yl)bicyclo[2.2.2]octan-1-amine]	6	183
CC(=O)NC1CCNCC1C1=NOCC(CN2CCCCC2)O1 (stereo not shown) [compound 671]	50	146

SMILES	GBA EC1.5 [µM]	Emax [%]
C[C@]1(C2=NOC[C@H](CN3CCCCC3)O2)CCCNC1 [compound 881]	5	219
COc1ncc(CC2(C3=NOC(C)C(CN4CCCCC4)O3)CCNC2)cc1Cl (stereo not shown) [compound 647]	50	103
c1nc(C2CCNCC2)sc1C1=NOCC(CN2CCCCC2)O1 (stereo not shown) [compound 874]	5	194
C[C@@]12CNC[C@]1(C1=NOCC(CN3CCCCC3)O1)C2 (relative stereo) [compound 481, rac-rel-trans-3-((1R,5R)-5-methyl-3-azabicyclo[3.1.0]hexan-1-yl)-5-(piperidin-1-ylmethyl)-5,6-dihydro-1,4,2-dioxazine]	22	174
Cn1ncc(CC2(C3=NOCC(CN4CCCCC4)O3)CCNCC2)n1 (stereo not shown) [compound 507]	35	149
CN(C)C(=O)N1CCC(C2=NOCC(CN3CCCCC3)O2)CC1 (stereo not shown) [compound 684]	50	109
c1nc2n(n1)CCC(C1=NOCC(CN3CCCCC3)O1)C2 (stereo not shown) [compound 662]	50	138
CC(N)C(=O)N1CCC(C2=NOCC(CN3CCCCC3)O2)CC1 (racemic) [compound 748, rac-2-amino-1-(4-(5-(piperidin-1-ylmethyl)-5,6-dihydro-1,4,2-dioxazin-3-yl)piperidin-1-yl)propan-1-one]	16	283
c1sc(C2CCNCC2)nc1C1=NOCC(CN2CCCCC2)O1 (stereo not shown) [compound 878]	3	231
CC1(C2=NOCC(CN3CCCCC3)O2)CCNC1 (racemic) [compound 465, rac-3-(3-methylpyrrolidin-3-yl)-5-(piperidin-1-ylmethyl)-5,6-dihydro-1,4,2-dioxazine]	10	283
CN1C[C@@H]2CN(CC3CON=C(C4(C)CCNCC4)O3)C[C@@H]2C1 (stereo partly shown) [compound 592]	50	110
C[C@]1(C2=NOC[C@@H](CN3CCCCC3)O2)CCCNC1 [compound 884]	6	207
C[C@H](N)C(=O)N1CCCC(C2=NOCC(CN3CCCCC3)O2)C1 (stereo partly drawn) [compound 718, rac-(2S)-2-amino-1-(3-(5-(piperidin-1-ylmethyl)-5,6-dihydro-1,4,2-dioxazin-3-yl)piperidin-1-yl)propan-1-one]	17	341
CN(C)CC1CON=C(C2CCNC2)O1 (stereo not shown) [compound 615]	50	108
CC1CC(C2=NOCC(CN3CCCCC3)O2)CN1 (racemic) [compound 560, rac-3-(5-methylpyrrolidin-3-yl)-5-(piperidin-1-ylmethyl)-5,6-dihydro-1,4,2-dioxazine]	8	244
COCC1(C2=NOCC(CN3CCCCC3)O2)CCNC1 (racemic) [compound 594, rac-3-(3-(methoxymethyl)pyrrolidin-3-yl)-5-(piperidin-1-ylmethyl)-5,6-dihydro-1,4,2-dioxazine]	49	152
OC1CCC(C2=NOCC(CN3CCCCC3)O2)CC1 (stereo not shown) [compound 609]	50	119
